Experiments:
CLP-induced Sepsis model = test: CLP-induced sepsis model; assay type: in vivo, ICR mice
Procedure: After ICR mice (25-30 g in body weight; MJ Ltd.) had been anesthetized with pentobarbital, right abdominal sites of the mice were dissected in a length of 1 cm to expose their cecum, and sites below the ileocecal valve were ligated. And then, after 4˜6 punctures had been created on the cecum with 21-gauge needle, the abdomen was sutured again to cause peritonitis, thereby inducing Sepsis.
After the peritoneal cavity of mice had been exposed, it was washed with sterilized saline (2 ml). The resultant solution was diluted with HBSS (Sigma Chemical Co., USA) in a ratio of 1/1000, and then 10 μl of each diluted solution was spread on Trypticase Soy agar (BBL, Becton Dickinson Co., USA) plates. After overnight incubation at 37° C., colony forming unit (CFU) was measured.
7 mice were administered with 1-stearoyl LPC (Sigma Chemical Co., USA) dissolved in 1% BSA solution containing no fatty acid in an amount of 10 mg/kg by subcutaneous injection 2 and 14 hours after the CLP surgery, respectively (experimental group). The remaining 7 mice were administered with 1% BSA solution containing no fatty acid of the same amount as above in the same manner (control group). The numbers of intraperitoneal E. coli cells in the ICR mice of experimental and control groups were measured in accordance with Reference Example 3, 24 hours after the CLP surgery.
Each 10 ICR mice were intraperitoneally administered with 1-stearoyl LPC (Sigma Chemical Co., USA) dissolved in 1% BSA solution containing no fatty acid in amounts of 5, 10, and 20 mg/kg, respectively, four times at intervals of 12 hours, 2 hours after the CLP surgery (experimental group-1, -2 and -3). The remaining 10 ICR mice were administered only with 1% BSA solution containing no fatty acid (control group). And then, the survival rates of mice in experimental- and control groups were investigated over the lapse of time.
10 mice for the experimental group were intraperitoneally administered with 1-stearoyl LPC (Sigma Chemical Co., USA) dissolved in 1% BSA solution containing no fatty acid in an amount of 10 mg/kg, four times at intervals of 12 hours, 10 hours after the CLP surgery. The remaining 10 mice for the control group were administered only with 1% BSA solution containing no fatty acid. Thereafter, the survival rates of ICR mice in experimental- and control groups were investigated over the lapse of time.
CLP-induced Sepsis model mice were subcutaneously injected with SPC, instead of 1-stearoyl LPC, in dosages of 3 mg/kg and 30 mg/kg four times at intervals of 12 hours, 2 hours after the CLP surgery, respectively. The survival rates of mice were investigated.

neutrophils = test: Bactericidal activity of neutrophils from bacteria-induced sepsis model mice; assay type: cell-based; settings: 30 μM 1-stearoyl LPC for 1 hour after E. coli ingestion, 1 hour killing time; vs PBS control
Procedure: ICR mice (25-30 g in body weight; MJ Ltd.) were intraperitoneally injected with alive 10^8 cells/ml E. coli (DH5a) that were suspended in 0.5 ml of PBS (phosphate-buffered saline) to cause peritonitis, thereby inducing sepsis.
The isolated neutrophils were adhered to the cover slip coated with poly-L-Lysine (0.01%) in a cell incubator maintained at 37° C., at a cell concentration of 10^6 cells/ml for 1 hour. Thereafter, E. coli was added thereto in a concentration of 10^6 cells/ml and cultured for 1 hour. E. coli cells that were not ingested by neutrophils were removed by washing the cover slip with PBS buffer. The cover slip was then treated with […] 1-stearoyl LPC, and further cultured for another 1 hour. In this stage, the cover slip of the control group was treated with PBS buffer, instead of LPC. Thereafter, after the exchange of a new RPMI-1640 medium, they were further cultured for 1 hour to give killing time. Then, the neutrophils were broken using Triton X-100 (0.05%), and accordingly E. coli cells were recovered. The recovered E. coli cells were spread onto a plate and cultured in an incubator maintained at 37° C. The number of E. coli cells that had grown on the medium was counted and subjected to statistical analysis. […]

CCCCCCCCCCCCCCCCCC(=O)OCC(O)COP(=O)([O-])OCC[N+](C)(C)C (stereo not shown) [1-stearoyl LPC, 1-stearoyl (18:0) lysophosphatidylcholine]
therapeutic effect (survival rate) when septicemia already developed (CLP-induced Sepsis model; 10 mg/kg intraperitoneal, four times at intervals of 12 hours, starting 10 hours after CLP surgery): excellent therapeutic effect
number of intraperitoneal E. coli cells (CLP-induced Sepsis model; 10 mg/kg subcutaneous, 2 and 14 hours after CLP surgery, 24 hours after surgery, P<0.01): remarkably decreased
survival rate (CLP-induced Sepsis model; 5, 10 and 20 mg/kg intraperitoneal, four times at intervals of 12 hours, starting 2 hours after CLP surgery): much higher than that of the mice in control group
number of alive E. coli recovered from neutrophils (neutrophils): significantly decreased
